Calls of active or inactive are those of the source.
Key:
[1] = biological target: Fructose-bisphosphate aldolase (Mycobacterium tuberculosis, UniProt P9WQA3); assay: Fluorescence-based biochemical high throughput dose response assay for inhibitors of the fructose-bisphosphate aldolase (FBA) of M. tuberculosis.; type: functional
[2] = HepG2 cell cytotoxicity, dose response, cytotoxicity control for Shn3 inhibitor project, CellTiter-Glo, cherry-picked (AID 624134); type: functional, cell-based
[3] = Shn3 3'UTR reporter inhibitors, dose response, cell-based, Clone20 osteoblasts, firefly luciferase, cherry-picked (AID 624132); type: functional;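 further: firefly luciferase luminescence from reporter carrying the Shn3 3'UTR in osteoblasts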
[4] = biological target: Low molecular weight phosphotyrosine protein phosphatase (Homo sapiens, UniProt P24666); type: functional; settings: read-out: IC50_Mean;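 further: Dose-response confirmation assay measuring inhibition of LMPTP enzyme activity by fluorescence intensity read-out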
Chain of Low molecular weight phosphotyrosine protein phosphatase (P24666 whole entry): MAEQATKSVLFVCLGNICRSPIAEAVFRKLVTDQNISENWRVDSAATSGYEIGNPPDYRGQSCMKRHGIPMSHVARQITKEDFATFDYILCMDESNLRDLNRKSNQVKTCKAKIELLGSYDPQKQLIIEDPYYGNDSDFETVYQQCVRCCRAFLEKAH

[5] = control 3'UTR Renilla luciferase suppression, dose response, counter-screen for Shn3 inhibitor project, cell-based, Clone20-Shn3RL, cherry-picked (AID 624133); type: functional
[6] = biological target: SWI/SNF-related matrix-associated actin-dependent regulator of chromatin subfamily A member 2 (Homo sapiens, UniProt P51531); assay: Luminescence-based cell-based high throughput dose response assay to identify activators of the function of SWI/SNF related, matrix associated, actin dependent regulator of chromatin, subfamily a, member 2 (SMARCA2, BRM).; type: functional
Chain of SWI/SNF-related matrix-associated actin-dependent regulator of chromatin subfamily A member 2 (P51531 whole entry): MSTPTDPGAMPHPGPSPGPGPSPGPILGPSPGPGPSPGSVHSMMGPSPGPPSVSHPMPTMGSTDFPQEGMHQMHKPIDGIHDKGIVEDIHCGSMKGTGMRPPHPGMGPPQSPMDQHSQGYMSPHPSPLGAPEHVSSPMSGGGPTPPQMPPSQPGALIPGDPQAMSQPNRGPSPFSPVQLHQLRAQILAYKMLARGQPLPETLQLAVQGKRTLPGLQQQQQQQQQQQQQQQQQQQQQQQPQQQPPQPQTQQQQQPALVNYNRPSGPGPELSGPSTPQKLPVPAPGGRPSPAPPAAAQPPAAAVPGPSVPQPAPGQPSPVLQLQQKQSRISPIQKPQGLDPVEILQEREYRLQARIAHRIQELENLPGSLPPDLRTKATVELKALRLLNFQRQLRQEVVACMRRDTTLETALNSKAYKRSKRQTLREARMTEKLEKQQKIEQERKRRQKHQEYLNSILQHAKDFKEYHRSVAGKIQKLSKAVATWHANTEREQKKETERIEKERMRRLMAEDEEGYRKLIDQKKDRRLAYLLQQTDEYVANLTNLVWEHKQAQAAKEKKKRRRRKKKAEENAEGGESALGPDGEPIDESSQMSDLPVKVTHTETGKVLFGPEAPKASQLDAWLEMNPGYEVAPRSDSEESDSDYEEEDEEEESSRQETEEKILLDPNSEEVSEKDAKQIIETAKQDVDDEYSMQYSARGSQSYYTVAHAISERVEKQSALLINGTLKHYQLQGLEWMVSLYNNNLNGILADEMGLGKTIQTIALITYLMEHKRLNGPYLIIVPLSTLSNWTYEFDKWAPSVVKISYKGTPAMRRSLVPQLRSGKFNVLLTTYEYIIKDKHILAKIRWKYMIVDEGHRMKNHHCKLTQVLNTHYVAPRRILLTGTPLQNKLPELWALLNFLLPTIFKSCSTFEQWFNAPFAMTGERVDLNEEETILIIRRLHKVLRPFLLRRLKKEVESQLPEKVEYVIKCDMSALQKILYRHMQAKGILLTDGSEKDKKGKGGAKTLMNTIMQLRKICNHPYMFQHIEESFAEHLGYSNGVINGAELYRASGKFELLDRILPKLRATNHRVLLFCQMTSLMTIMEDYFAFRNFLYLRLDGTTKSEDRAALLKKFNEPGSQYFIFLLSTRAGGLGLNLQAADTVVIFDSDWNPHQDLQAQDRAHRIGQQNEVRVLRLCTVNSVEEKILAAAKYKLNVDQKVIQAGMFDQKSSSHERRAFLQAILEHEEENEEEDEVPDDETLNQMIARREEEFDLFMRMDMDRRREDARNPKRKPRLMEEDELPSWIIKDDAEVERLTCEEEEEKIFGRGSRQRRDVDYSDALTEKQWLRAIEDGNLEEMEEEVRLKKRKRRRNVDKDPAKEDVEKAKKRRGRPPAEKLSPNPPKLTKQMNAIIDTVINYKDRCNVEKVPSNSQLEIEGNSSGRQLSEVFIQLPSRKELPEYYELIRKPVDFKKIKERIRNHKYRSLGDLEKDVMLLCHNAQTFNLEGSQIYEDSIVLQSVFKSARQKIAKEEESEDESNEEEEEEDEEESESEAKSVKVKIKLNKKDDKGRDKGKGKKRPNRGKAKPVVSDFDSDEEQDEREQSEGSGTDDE

[7] = Counterscreen for activators of the function of SWI/SNF related, matrix associated, actin dependent regulator of chromatin, subfamily a, member 2 (SMARCA2, BRM): Luminescence-based cell-based high throughput dose response assay to identify non-selective compounds using the VP16 reporter assay.; type: functional
[8] = C. albicans growth with fluconazole, confirmation, fluorescence, retest (AID 2467); type: functional, cell-based
[9] = NIH-3T3 fibroblast cytotoxicity, dose response, cytotoxicity control, cell-based, fluorescence, Alamar Blue, secondary assay (AID 2327); type: functional;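 further: NIH-3T3 mouse fibroblasts cultured with fluconazole at 8 µg/mL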
[10] = biological target: Nuclear receptor subfamily 5 group A member 2 (Homo sapiens, UniProt O00482); type: functional, cell-based;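 further: HEK293T cells transfected with LRH-1 and a StAR promoter luciferase reporter; potency for inhibitors that lower LRH-1 driven reporter light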
Chain of Nuclear receptor subfamily 5 group A member 2 (O00482 whole entry): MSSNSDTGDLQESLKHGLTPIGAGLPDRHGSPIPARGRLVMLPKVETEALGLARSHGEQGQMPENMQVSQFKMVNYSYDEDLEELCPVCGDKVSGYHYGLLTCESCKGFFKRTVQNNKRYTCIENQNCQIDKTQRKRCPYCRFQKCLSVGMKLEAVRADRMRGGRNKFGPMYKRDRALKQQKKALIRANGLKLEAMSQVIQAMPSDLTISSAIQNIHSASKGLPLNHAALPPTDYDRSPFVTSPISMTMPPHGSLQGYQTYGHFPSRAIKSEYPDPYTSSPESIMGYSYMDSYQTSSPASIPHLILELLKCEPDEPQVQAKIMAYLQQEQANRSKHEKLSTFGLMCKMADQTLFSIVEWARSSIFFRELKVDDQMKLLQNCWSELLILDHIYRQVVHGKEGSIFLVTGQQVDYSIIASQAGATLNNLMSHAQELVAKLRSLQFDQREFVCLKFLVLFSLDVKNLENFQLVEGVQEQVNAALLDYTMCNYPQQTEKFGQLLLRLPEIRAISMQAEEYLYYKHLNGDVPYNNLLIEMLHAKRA

Steroidogenic factor 1 = Steroidogenic factor 1 (Homo sapiens, UniProt Q13285); assay: Counterscreen for inverse agonists of the liver receptor homolog-1 (LRH-1; NR5A2): Luminescence-based cell-based high throughput dose response assay to identify inverse agonists of the Steroidogenic Factor 1 Nuclear Receptor (SF1; NR5A1).; type: functional
Chain of Steroidogenic factor 1 (Q13285 whole entry): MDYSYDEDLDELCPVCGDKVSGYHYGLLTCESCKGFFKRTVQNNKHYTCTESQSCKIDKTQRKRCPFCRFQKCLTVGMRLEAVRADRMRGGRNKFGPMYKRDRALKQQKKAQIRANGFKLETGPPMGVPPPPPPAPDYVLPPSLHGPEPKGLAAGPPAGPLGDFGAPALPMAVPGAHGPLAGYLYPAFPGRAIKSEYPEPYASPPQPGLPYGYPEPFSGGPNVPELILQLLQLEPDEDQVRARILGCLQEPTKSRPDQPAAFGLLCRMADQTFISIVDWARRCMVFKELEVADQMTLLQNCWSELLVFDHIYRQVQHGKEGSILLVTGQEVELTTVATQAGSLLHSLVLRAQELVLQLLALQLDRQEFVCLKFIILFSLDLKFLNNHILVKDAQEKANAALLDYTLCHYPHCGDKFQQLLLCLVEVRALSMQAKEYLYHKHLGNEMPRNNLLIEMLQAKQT

[11] = StAR promoter reporter inhibition counter-screen, dose response, counter-screen for LRH-1 inverse agonist project, cell-based, luminescence, luciferase reporter (AID 651969); type: functional
[12] = Fluorescence-based cell-based high throughput dose response assay for inhibitors of the interaction of nucleotide-binding oligomerization domain containing 2 (NOD2) and the receptor-interacting serine-threonine kinase 2 (RIPK2).; type: functional; settings: Homo sapiens
Beta Lactamase = Beta Lactamase (Pseudomonas aeruginosa, UniProt Q932Y6); assay: beta-lactamase reporter inhibitor potency, dose response, artefact control for NOD2-RIPK2 interaction inhibitor project, BLA reporter cells, FRET fluorescence (AID 651552); type: functional, cell-based
Chain of Beta Lactamase (Q932Y6 whole entry): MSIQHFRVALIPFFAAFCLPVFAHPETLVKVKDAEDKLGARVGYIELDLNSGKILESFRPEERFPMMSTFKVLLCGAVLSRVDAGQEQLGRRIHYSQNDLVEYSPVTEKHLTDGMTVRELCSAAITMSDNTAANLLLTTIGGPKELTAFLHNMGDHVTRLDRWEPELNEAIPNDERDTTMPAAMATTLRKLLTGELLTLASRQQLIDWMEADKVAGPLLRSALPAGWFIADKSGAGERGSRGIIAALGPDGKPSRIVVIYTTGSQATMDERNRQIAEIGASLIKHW

[13] = non-specific cell cytotoxicity, dose response, cytotoxicity control for PAX8 inhibitor project, plate reader, dry powder samples (AID 743021); type: functional, cell-based
Paired box protein Pax-8 = Paired box protein Pax-8 (Homo sapiens, UniProt Q06710); assay: inhibitors of PAX8-driven TPO luciferase reporter, dose response, RMG-I cells, cherry-pick (AID 687027); type: functional, cell-based;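 further: luciferase reporter driven by Pax8 target thyroperoxidase promoter measured by SteadyGlo luminescence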
Chain of Paired box protein Pax-8 (Q06710 whole entry): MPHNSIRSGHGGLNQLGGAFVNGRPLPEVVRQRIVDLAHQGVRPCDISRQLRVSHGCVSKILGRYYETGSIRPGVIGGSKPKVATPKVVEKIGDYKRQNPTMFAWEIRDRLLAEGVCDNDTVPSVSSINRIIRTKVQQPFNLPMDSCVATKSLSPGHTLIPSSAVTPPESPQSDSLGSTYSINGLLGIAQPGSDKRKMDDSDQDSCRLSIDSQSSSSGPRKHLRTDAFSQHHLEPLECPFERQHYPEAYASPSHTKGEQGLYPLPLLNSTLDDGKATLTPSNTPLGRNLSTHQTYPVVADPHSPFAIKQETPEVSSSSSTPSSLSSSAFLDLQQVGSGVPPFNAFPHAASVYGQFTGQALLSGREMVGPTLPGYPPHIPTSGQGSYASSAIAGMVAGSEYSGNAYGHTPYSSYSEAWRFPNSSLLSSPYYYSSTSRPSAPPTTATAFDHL

[14] = ADAM10 inhibitors, peptide cleavage, dose response, biochemical, QFRET (AID 743254);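 further: ADAM10 enzyme with the DM2 quenched FRET peptide as substrate; EDANS fluorescence gain as the protease cuts the substrate; inhibitor potency against ADAM10 proteolytic activity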
[15] = biological target: Disintegrin and metalloproteinase domain-containing protein 17 (Homo sapiens, UniProt P78536); assay: ADAM17 protease inhibitors, dose response, counter-screen for ADAM10 exosite inhibitor project, biochemical, quenched FRET substrate (AID 743253)
Chain of Disintegrin and metalloproteinase domain-containing protein 17 (P78536 whole entry, the tested form may be a part): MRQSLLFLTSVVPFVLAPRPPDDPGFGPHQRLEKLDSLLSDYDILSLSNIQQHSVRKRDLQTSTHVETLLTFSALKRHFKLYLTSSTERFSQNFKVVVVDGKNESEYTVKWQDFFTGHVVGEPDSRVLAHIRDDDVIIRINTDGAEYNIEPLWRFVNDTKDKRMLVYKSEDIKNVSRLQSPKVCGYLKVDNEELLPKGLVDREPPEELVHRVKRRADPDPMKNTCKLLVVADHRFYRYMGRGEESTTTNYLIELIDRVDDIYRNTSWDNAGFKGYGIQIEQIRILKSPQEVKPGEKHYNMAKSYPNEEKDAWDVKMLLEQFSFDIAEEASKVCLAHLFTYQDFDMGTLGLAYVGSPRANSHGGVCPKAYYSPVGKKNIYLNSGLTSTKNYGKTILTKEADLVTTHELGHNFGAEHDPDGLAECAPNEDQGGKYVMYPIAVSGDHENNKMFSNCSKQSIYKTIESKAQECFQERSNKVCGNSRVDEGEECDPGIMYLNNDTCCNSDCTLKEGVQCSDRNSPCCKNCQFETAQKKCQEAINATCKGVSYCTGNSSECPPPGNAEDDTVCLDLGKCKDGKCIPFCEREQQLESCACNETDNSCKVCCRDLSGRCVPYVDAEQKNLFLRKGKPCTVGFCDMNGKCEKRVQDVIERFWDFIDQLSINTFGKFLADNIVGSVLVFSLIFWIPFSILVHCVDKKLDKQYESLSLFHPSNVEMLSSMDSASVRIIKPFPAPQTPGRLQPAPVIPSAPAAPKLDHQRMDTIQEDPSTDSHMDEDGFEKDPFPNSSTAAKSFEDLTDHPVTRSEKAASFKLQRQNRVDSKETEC

[16] = intracellular Trypanosoma cruzi inhibitors in host cells – cell-based, plate reader, cherry-pick samples, set 3, dose response (AID 651818); type: functional;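 further: compounds incubated with infected cells for about four days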
[17] = miR-122 activators in hepatoma reporter cells, dose response, cell-based, Huh7 psiCHECK-miR122, Renilla luciferase, cherry-picked (AID 651956); type: functional;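 further: huh7 hepatoma cells stably carrying a psiCHECK-2 miR-122 sensor plasmid; renilla luciferase signal reporting endogenous miR-122 activity after 48 h compound exposure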
[18] = NIH:OVCAR-3 ovarian cancer cell cytotoxicity, dose response, PAX8 inhibitor project, plate reader, dry powder samples (AID 743044); type: functional, cell-based
[19] = A2780 ovarian cancer cell cytotoxicity, dose response, cytotoxicity control, plate reader, dry powder samples (AID 743046); type: functional, cell-based
HEK293 [20] = assay: HEK cell cytotoxicity by LDH release, dose response, cytotoxicity control for IDE activator project, fluorescence, HEK cells (AID 588440); type: functional, cell-based; settings: Homo sapiens;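 further: cytotoxicity by LDH release measuring loss of membrane integrity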
HEK293 [21] = assay: optical interference in Abeta FP readout, dose response, artefact control for IDE activator project, biochemical, fluorescence polarization (AID 588442); type: functional, cell-based; settings: Homo sapiens
Insulin-degrading enzyme [22] = biological target: T1, Insulin-degrading enzyme (Homo sapiens, UniProt P14735); assay: activators of recombinant IDE enzyme, dose response, counter-screen for IDE activator project, biochemical, fluorescence polarization (AID 588681)
T1 sequence (P14735 whole entry): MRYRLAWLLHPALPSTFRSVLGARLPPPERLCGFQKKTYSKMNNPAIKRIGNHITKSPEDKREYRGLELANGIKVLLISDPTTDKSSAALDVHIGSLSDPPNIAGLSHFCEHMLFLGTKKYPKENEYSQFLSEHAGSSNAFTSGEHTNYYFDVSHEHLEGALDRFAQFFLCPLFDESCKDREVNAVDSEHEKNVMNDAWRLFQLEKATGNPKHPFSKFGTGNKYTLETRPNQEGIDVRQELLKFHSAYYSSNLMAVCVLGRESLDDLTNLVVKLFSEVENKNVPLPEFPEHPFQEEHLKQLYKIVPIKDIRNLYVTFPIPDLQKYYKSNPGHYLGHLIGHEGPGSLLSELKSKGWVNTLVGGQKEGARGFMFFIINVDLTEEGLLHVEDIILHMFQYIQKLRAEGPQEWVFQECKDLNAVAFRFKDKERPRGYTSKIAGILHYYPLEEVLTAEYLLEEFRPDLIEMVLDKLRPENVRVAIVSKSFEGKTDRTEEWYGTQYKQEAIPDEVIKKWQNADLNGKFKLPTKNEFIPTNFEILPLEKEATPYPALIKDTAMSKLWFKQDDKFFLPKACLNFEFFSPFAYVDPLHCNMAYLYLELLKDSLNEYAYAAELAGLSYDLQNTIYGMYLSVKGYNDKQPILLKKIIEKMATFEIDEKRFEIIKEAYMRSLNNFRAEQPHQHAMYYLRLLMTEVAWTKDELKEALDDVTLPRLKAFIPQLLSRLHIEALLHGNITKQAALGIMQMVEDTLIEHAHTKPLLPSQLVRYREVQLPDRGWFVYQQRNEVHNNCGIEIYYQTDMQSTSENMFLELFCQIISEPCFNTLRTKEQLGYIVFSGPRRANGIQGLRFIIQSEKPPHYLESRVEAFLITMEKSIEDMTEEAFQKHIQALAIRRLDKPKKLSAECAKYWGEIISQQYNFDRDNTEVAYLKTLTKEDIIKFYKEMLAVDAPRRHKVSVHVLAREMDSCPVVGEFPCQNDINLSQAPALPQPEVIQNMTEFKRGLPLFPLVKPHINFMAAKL

Insulin-degrading enzyme [23] = biological target: T1, Insulin-degrading enzyme; assay: activators of endogenous IDE in HEK cells, dose response, cell-based, fluorescence polarization (AID 588439); type: functional

Chain of Fructose-bisphosphate aldolase (P9WQA3 whole entry): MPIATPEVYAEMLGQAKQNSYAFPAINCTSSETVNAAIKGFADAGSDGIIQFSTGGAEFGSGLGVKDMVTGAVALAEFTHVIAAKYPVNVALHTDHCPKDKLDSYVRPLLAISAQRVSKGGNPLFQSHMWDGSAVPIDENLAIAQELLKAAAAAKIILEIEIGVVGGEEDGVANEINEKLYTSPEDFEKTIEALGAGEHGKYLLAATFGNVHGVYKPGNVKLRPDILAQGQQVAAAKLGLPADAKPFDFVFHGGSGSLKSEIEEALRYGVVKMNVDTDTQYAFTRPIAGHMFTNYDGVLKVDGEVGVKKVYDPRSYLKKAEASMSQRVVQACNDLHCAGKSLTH

With `Cc1cc(OC(C)C(=O)NCCCN2CCOCC2)c2c(C)cc(=O)oc2c1` (stereo unspecified) the IC50 [1] was 1.32 µM (active).
In the case of `COc1ccccc1CNc1nc(Nc2cccc(-c3cnco3)c2)c2sccc2n1`, the AC50 [2] is reported as 45.6 µM (active), the AC50 [3] is reported as 5.61 µM (active) and the IC50 [4] is reported as 42.4 µM (inactive). The AC50 [5] was 9.22 µM (active).
With `COc1ccc(NC(=O)c2ccc([N+](=O)[O-])o2)cc1` the EC50 [6] was > 91.1 µM (inactive), the EC50 [7] was > 91.1 µM (inactive) and the EC50 [8] was 3.55 µM (active). For the same molecule, the EC50 [9] was 28.2 µM (active).
With `COc1ccc(NC(=O)COC(=O)Cc2c[nH]c3ccccc23)cc1Cl` the IC50 [10] was 25.4 µM (inactive), the IC50 (Steroidogenic factor 1) was 17.6 µM (inactive) and the IC50 [11] was 35.9 µM (inactive).
For `C=C1C(=O)[C@]23C[C@H]1CCC2[C@@]1(C)C(C[C@@H]3O)[C@](C)(C(=O)OC)CC[C@@H]1OC(C)=O` (stereo partly specified), the AC50 [2] was 7.22 µM (active), the AC50 [3] was 2.14 µM (active) and the IC50 [12] was 0.917 µM (active). For the same molecule, the IC50 (Beta Lactamase) was 18 µM (inactive) and the AC50 [5] was 3.51 µM (active).
With `C=C1C(=O)[C@]23C[C@H]1CCC2[C@@]1(C)C(C[C@@H]3O)[C@](C)(C(=O)OC)CC[C@@H]1O` (stereo partly specified) the AC50 [2] was 15.8 µM (active), the AC50 [3] was 2.58 µM (active) and the IC50 [12] was 2.3 µM (active). For the same molecule, the AC50 [13] was 38.2 µM (active), the AC50 (Paired box protein Pax-8) was 1.71 µM (active) and the IC50 (Beta Lactamase) was 24.2 µM (inactive). For the same molecule, the AC50 [5] was 7.06 µM (active).
With `C[C@@H]1CCCCO[C@H](CN(C)S(=O)(=O)c2ccc(F)cc2)[C@@H](C)CN([C@H](C)CO)C(=O)c2cc(NC(=O)Nc3ccc(C(F)(F)F)cc3)ccc2O1` the IC50 [14] was > 69.5 µM (inactive), the IC50 [15] was > 69.5 µM (inactive) and the AC50 [16] was 3.61 µM (active).
With `CO[C@H]1CN(C)C(=O)c2ccc(NC(C)=O)cc2OC[C@@H](C)N(C(=O)CC2CC2)C[C@H]1C` the AC50 [17] was 49.6 µM (active).
For `CO[C@@H]1CN(C)C(=O)c2cc(NC(=O)c3ccc(-c4ccccc4)cc3)ccc2OC[C@H](C)NC[C@H]1C`, the AC50 [18] was 42.2 µM (active), the AC50 [13] was 40.4 µM (active) and the AC50 (Paired box protein Pax-8) was 25.3 µM (active). For the same molecule, the AC50 [19] was 37.2 µM (active).
For `Cc1nc2ccccc2c(=O)n1-c1ccc(C(=O)O)cc1`, the IC50 (HEK293 [20]) was > 89.2 µM (inactive), the EC50 (HEK293 [21]) was > 55.9 µM (inactive) and the EC50 (Insulin-degrading enzyme [22]) was > 54.7 µM (inactive). The EC50 (Insulin-degrading enzyme [23]) was > 54.7 µM (inactive).

From ChEMBL document CHEMBL1201862, “PubChem BioAssay data set” (2004)
